Results taken from US8617872B2, “Compositions for culturing spirochetes” (priority 2000, dated 2013).

Tests used:
Treponema isolate = assay: Antimicrobial susceptibility test (MICROSCAN plates) of a patient's Treponema isolate; assay type: cell-based; conditions: for RESULT (antibiotic susceptibility): Treponema infected patient's isolate, MICROSCAN plates, 35° C., 16-20 hours; for susceptibility profile from a specific human patient: text restating Example 7
Description: For susceptibility testing, the organisms harvested could be assayed using any suitable susceptibility assay (See, Example 7). In some embodiments of the present invention, MICROSCAN antibiotic susceptibility plates were inoculated and incubated. Following incubations, plates were scanned for growth and respective sensitivity reaction. […] For the results to be considered reliable, the no growth of organisms was accepted in the negative control well, while the positive control well had to have sufficient growth to be read. In some embodiments of the present invention, to confirm the presence or absence of growing spirochetes in the growth well, aliquots from the growth well were reinoculated with fresh growth media and after an incubation time (e.g., 7-10 days) the presence of the organisms was confirmed (e.g., by phase contrast microscopy or direct fluorescent antibody staining).
(§1) This example describes the preparation of a pellet used for antimicrobial susceptibility testing of a culture sample. The procedure begins with a culture (e.g., prepared in the manner described in Example 2), where serum from a patient is inoculated in GSI-1 media and allowed to grow. In order to form pellet, an aliquot of this culture sample is placed in a microcentrifuge tube along with 10% SDS solution, and centrifuged at 14,000 g to disrupt the spirochetes and maximize the number of available eptiopic sites. The disrupted spirochetes were then cultured in an alternative growth medium made up of one part GSI-1 medium, one part 6.5% lactalbumin hydrolysate, one part 2% brain heart infusion, one part 10% pluronic fluid, and one part of the isolated (disrupted) spirochetes. This inoculated alternative growth medium was then allowed to incubate in the closed micro centrifuge tube until a distinctive pellet was observed (typically 7-14 days).
This example describes an antimicrobial susceptibility test performed for a human patient. The patient had previously been testing using GSI-1 medium (e.g., as described in Example 2) for the presence of any spirochetes. […] This culture sample was then transferred to a microcentrifuge tube, and a pellet for antimicrobial susceptibility testing was prepared as described in Example 6.
(§2) Following the observation of pellet formation, the tube was vortexed and incubated at 35° C. until a MacFarlane standard of between 8 to 12% turbidity was achieved. MICROSCAN antibiotic susceptibility microtiter plates were then inoculated with (e.g., 110 μl of) inoculum and allowed to incubate at 35° C. for 16-20 hours. The microtiter plates were then scanned for growth and respective sensitivity reaction (both the control well and the growth well). Table 2 below lists the various antimicrobials tested with this sample and whether growth of the organism was inhibited (susceptible) or whether the growth of the organism was not inhibited (resistant).

E. coli = assay: Antibiotic susceptibility test (MICROSCAN or disc diffusion), control organism E. coli; assay type: cell-based; conditions: total isolates 1
Tatumella = assay: Antibiotic susceptibility test (MICROSCAN or disc diffusion), control organism Tatumella; assay type: cell-based; conditions: total isolates 2
From the text: as §1, §2
(§3) This Example describes the results for susceptibility tests that were performed on a large number of patient samples positive for either Borrelia or Leptospira. […] The results presented in Table 3 reveal the varied response of different types of spirochetes to different antibiotics.

Y. entero gp. = assay: Antibiotic susceptibility test (MICROSCAN or disc diffusion), control organism Y. entero gp.; assay type: cell-based; conditions: total isolates 1
Borrelia = assay: Antibiotic susceptibility test (MICROSCAN or disc diffusion) of patient samples positive for Borrelia; assay type: cell-based; conditions: total isolates 519
From the text: as §1, §2, §3

Leptospira [1] = assay: Antibiotic susceptibility test (MICROSCAN or disc diffusion) of patient samples positive for Leptospira; assay type: cell-based; conditions: total isolates 276
From the text: as §1, §2, §3

A. lwoffii = assay: Antibiotic susceptibility test (MICROSCAN or disc diffusion), control organism A. lwoffii; assay type: cell-based; conditions: total isolates 1
Pseudomonas = assay: Antibiotic susceptibility test (MICROSCAN or disc diffusion), control organism Pseudomonas; assay type: cell-based; conditions: total isolates 1
Leptospira [2] = assay: Susceptibility testing of Leptospira isolated from a patient with symptoms of multiple sclerosis; assay type: cell-based; conditions: for Antibiotic Susceptibility Results, SERUM: Leptospira culture from serum of multiple sclerosis patient; for Antibiotic Susceptibility Results, URINE: Leptospira culture from urine of multiple sclerosis patient
Description: This example describes the preparation of a pellet used for antimicrobial susceptibility testing of a culture sample. […] In order to form pellet, an aliquot of this culture sample is placed in a microcentrifuge tube along with 10% SDS solution, and centrifuged at 14,000 g to disrupt the spirochetes and maximize the number of available eptiopic sites. […] This inoculated alternative growth medium was then allowed to incubate in the closed micro centrifuge tube until a distinctive pellet was observed (typically 7-14 days).
MICROSCAN antibiotic susceptibility microtiter plates were then inoculated with (e.g., 110 μl of) inoculum and allowed to incubate at 35° C. for 16-20 hours. The microtiter plates were then scanned for growth and respective sensitivity reaction (both the control well and the growth well).

Leptospira [3] = assay: Susceptibility testing of Leptospira isolated from a patient with symptoms of rheumatoid arthritis; assay type: cell-based; conditions: for Antibiotic Susceptibility Results, SERUM: Leptospira culture from serum of rheumatoid arthritis patient; for Antibiotic Susceptibility Results, URINE: Leptospira culture from urine of rheumatoid arthritis patient
From the text: as §1
as §2, with “well).” for “well). Table 2 below lists the various antimicrobials tested with this sample and whether growth of the organism was inhibited (susceptible) or whether the growth of the organism was not inhibited (resistant).”
This Example describes the diagnosis and treatment of a human patient with symptoms of rheumatoid arthritis. In particular, serum and urine samples from this patient were initially cultured on GSI-1 (e.g., as described in Example 2), and screened for the presence of spirochetes (e.g., as described in Example 3). […] These cultures were then used to produce pellets for antimicrobial susceptibility testing (e.g., as described in Example 6). The antimicrobial susceptibility tests were then carried out on each sample (e.g., as described in Example 7) with the antimicrobials listed below in Table 5.

Borrelia and Leptospira = assay: Susceptibility of several hundred patient samples having Borrelia and Leptospira infections (population effectiveness); assay type: cell-based
Description: In these experiments, several hundred patient samples were cultured on GSI-1 (e.g., as described in Example 2). These culture samples were then used to produce pellets for antimicrobial susceptibility testing as described in Example 6. The antimicrobial susceptibility tests were then carried out on each sample as described in Example 7 or by the disc diffusion method (e.g., instead of MICROSCAN) with the antimicrobials listed below in Table 3.

[4] = test system: Borrelia burgdorferi infection in a human patient; assay: Treatment of a human patient with Borrelia burgdorferi infection; assay type: in vivo; conditions: human patient with neurological distress, Borrelia burgdorferi positive

## C[C@H]1[C@H](NC(=O)/C(=N\OC(C)(C)C(=O)O)c2csc(N)n2)C(=O)N1S(=O)(=O)O [Aztreonam]
Treponema isolate
  RESULT (antibiotic susceptibility): Susceptible
  susceptibility profile from a specific human patient: sensitive
E. coli
  Antibiotic Susceptibility Test Results, E. coli: 100%
Tatumella
  Antibiotic Susceptibility Test Results, Tatumella: 0%
Y. entero gp.
  Antibiotic Susceptibility Test Results, Y. entero gp.: 0%
Borrelia
  Antibiotic Susceptibility Test Results, Borrelia: 11%
Leptospira [1]
  Antibiotic Susceptibility Test Results, Leptospira: 15%
A. lwoffii
  Antibiotic Susceptibility Test Results, A. lwoffii: 100%
Pseudomonas
  Antibiotic Susceptibility Test Results, Pseudomonas: 100%
Leptospira [2]
  Antibiotic Susceptibility Results, SERUM: Resistant
  Antibiotic Susceptibility Results, URINE: Resistant
Leptospira [3]
  Antibiotic Susceptibility Results, SERUM: Resistant
  Antibiotic Susceptibility Results, URINE: Resistant
Borrelia and Leptospira
  effectiveness in the population: less than 20%

## CO/N=C(\C(=O)N[C@@H]1C(=O)N2C(C(=O)O)=C(CSc3nc(=O)c(=O)[nH]n3C)CS[C@H]12)c1csc(N)n1 [ceftriaxone]
[4]
  patient response to treatment: responded well until the medication was stopped

## Amoxicillin/Clavulanate [Augmentin]
Treponema isolate
  RESULT (antibiotic susceptibility): Resistant
  susceptibility profile from a specific human patient: resistance
E. coli
  Antibiotic Susceptibility Test Results, E. coli: 100%
Tatumella
  Antibiotic Susceptibility Test Results, Tatumella: 100%
Y. entero gp.
  Antibiotic Susceptibility Test Results, Y. entero gp.: 100%
Borrelia
  Antibiotic Susceptibility Test Results, Borrelia: 90%
Leptospira [1]
  Antibiotic Susceptibility Test Results, Leptospira: 89%
Leptospira [2]
  Antibiotic Susceptibility Results, SERUM: Resistant
  Antibiotic Susceptibility Results, URINE: Resistant
Leptospira [3]
  Antibiotic Susceptibility Results, SERUM: Susceptible
  Antibiotic Susceptibility Results, URINE: Susceptible
Borrelia and Leptospira
  effectiveness in the population: over 80%
